Test results published in PubChem BioAssay AID328 (DTP/NCI, 2004).
Where “and” joins values, the source holds several entries; their conditions need not be identical. Identical values can stand only once. Inconclusive results and toxic doses are left out. How the source made its calls: active means survival T/C of 150% or more; inactive means T/C below 125% in these data.

System: BDF1 mice, P388 leukemia ip, median survival T/C
Experiment: NCI In Vivo Anticancer Drug Screen. Data for tumor model P388 Leukemia (intraperitoneal) in B6D2F1 (BDF1) mice
Conditions: endpoint: median survival time, higher = longer survival
Procedure, shortened: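 In tumour-bearing mice, survival after compound treatment is set against the vehicle group and given as a quotient.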

[1] = dose: 50.0 mg/kg/injection, schedule: Q04DX003 (ip), vehicle: saline with Tween-80
[2] = dose: 100.0 mg/kg/injection, schedule: Q04DX003 (ip), vehicle: saline with Tween-80
[3] = dose: 200.0 mg/kg/injection, schedule: Q04DX003 (ip), vehicle: saline with Tween-80
[4] = dose: 400.0 mg/kg/injection, schedule: Q04DX003 (ip), vehicle: saline with Tween-80
[5] = dose: 25.0 mg/kg/injection, schedule: Q01DX009 (ip), vehicle: saline with Tween-80
[6] = dose: 50.0 mg/kg/injection, schedule: Q01DX009 (ip), vehicle: saline with Tween-80
[7] = dose: 100.0 mg/kg/injection, schedule: Q01DX009 (ip), vehicle: saline with Tween-80
[8] = dose: 200.0 mg/kg/injection, schedule: Q01DX009 (ip), vehicle: saline with Tween-80
[9] = dose: 6.25 mg/kg/injection, schedule: Q01DX009 (ip), vehicle: saline
[10] = dose: 12.5 mg/kg/injection, schedule: Q04DX003 (ip), vehicle: saline
[11] = dose: 100.0 mg/kg/injection, schedule: Q04DX003 (ip), vehicle: Klucel (hydroxypropylcellulose) (HPC)
[12] = dose: 200.0 mg/kg/injection, schedule: Q04DX003 (ip), vehicle: Klucel (hydroxypropylcellulose) (HPC)
[13] = dose: 400.0 mg/kg/injection, schedule: Q04DX003 (ip), vehicle: Klucel (hydroxypropylcellulose) (HPC)
[14] = dose: 25.0 mg/kg/injection, schedule: Q01DX009 (ip), vehicle: saline
[15] = dose: 50.0 mg/kg/injection, schedule: Q01DX009 (ip), vehicle: saline
[16] = dose: 100.0 mg/kg/injection, schedule: Q04DX003 (ip), vehicle: saline
[17] = dose: 100.0 mg/kg/injection, schedule: Q01DX009 (ip), vehicle: saline
[18] = dose: 200.0 mg/kg/injection, schedule: Q01DX009 (ip), vehicle: saline
[19] = dose: 200.0 mg/kg/injection, schedule: Q04DX003 (ip), vehicle: saline
[20] = dose: 400.0 mg/kg/injection, schedule: Q04DX003 (ip), vehicle: saline

Measured: T/C

Nc1nc(=O)[nH]c(N)c1N=O
inactive: dose: 25.0 mg/kg/injection, schedule: Q04DX003 (ip), vehicle: saline with Tween-80 98 % of control | [1] 107 % of control | [2] 100 % of control | [3] 100 % of control | [4] 102 % of control

COc1ccc2[nH]c(-c3ccccc3)c(-c3ccccc3)c2c1
inactive: [5] 95 % of control | [6] 90 % of control | [7] 90 % of control

FC(F)(F)c1ccc(C=Nc2ccc(Oc3ccccc3)cc2)cc1
inactive: [6] 98 % of control | [7] 100 % of control | [8] 91 % of control

COc1ccc(C2=CC(c3ccc(OC)c(OC)c3)c3c(c4ccccc4oc3=O)O2)cc1OC (stereo unspecified)
inactive: dose: 12.5 mg/kg/injection, schedule: Q01DX009 (ip), vehicle: water 98 % of control | dose: 25.0 mg/kg/injection, schedule: Q01DX009 (ip), vehicle: water 100 % of control | dose: 25.0 mg/kg/injection, schedule: Q04DX003 (ip), vehicle: water 97 % of control | dose: 50.0 mg/kg/injection, schedule: Q01DX009 (ip), vehicle: water 97 % of control | dose: 50.0 mg/kg/injection, schedule: Q04DX003 (ip), vehicle: water 94 % of control | dose: 100.0 mg/kg/injection, schedule: Q01DX009 (ip), vehicle: water 96 % of control and 97 % of control | dose: 200.0 mg/kg/injection, schedule: Q04DX003 (ip), vehicle: water 97 % of control | dose: 400.0 mg/kg/injection, schedule: Q01DX009 (ip), vehicle: water 106 % of control | dose: 400.0 mg/kg/injection, schedule: Q04DX003 (ip), vehicle: water 97 % of control

C=CC(=O)NC1CCCCC1
inactive: dose: 50.0 mg/kg/injection, schedule: Q04DX003 (ip), vehicle: Klucel (hydroxypropylcellulose) (HPC) 90 % of control | dose: 75.0 mg/kg/injection, schedule: Q04DX003 (ip), vehicle: Klucel (hydroxypropylcellulose) (HPC) 104 % of control | dose: 150.0 mg/kg/injection, schedule: Q04DX003 (ip), vehicle: Klucel (hydroxypropylcellulose) (HPC) 104 % of control

Oc1cc(OCCCc2ccc(F)cc2)cc2ccc3ccccc3c12
inactive: [2] 112 % of control | [3] 86 % of control

CO[C@H](C)[C@@](O)(C(=O)OCC1=CCN2CCC[C@@H]12)C(C)C
inactive: dose: 20.0 mg/kg/injection, schedule: Q01DX010 (ip), vehicle: carboxymethylcellulose (CMC) 95 % of control | dose: 40.0 mg/kg/injection, schedule: Q01DX010 (ip), vehicle: carboxymethylcellulose (CMC) 115 % of control | dose: 80.0 mg/kg/injection, schedule: Q01DX010 (ip), vehicle: carboxymethylcellulose (CMC) 110 % of control

Cc1ccc(C(=O)CCCCCCCCC(=O)c2ccc(C)cc2)cc1
inactive: [2] 100 % of control | [3] 90 % of control | [4] 100 % of control

CCCCCC[P+](c1ccccc1)(c1ccccc1)c1ccccc1
inactive: [9] 114 % of control | dose: 6.25 mg/kg/injection, schedule: Q04DX003 (ip), vehicle: saline 109 % of control | dose: 12.5 mg/kg/injection, schedule: Q01DX009 (ip), vehicle: saline 92 % of control | [10] 104 % of control

C[C@]12CCC(=O)C=C1CC[C@@H]1[C@@H]2[C@@H](O)C[C@@]2(C)[C@H]1CC[C@]2(O)C(=O)COC(=O)c1ccc([N+](=O)[O-])cc1Cl
inactive: [2] 100 % of control | [3] 107 % of control | [4] 103 % of control

C=C1CC[N+]2(CC(C)C)CCCC12 (stereo unspecified)
inactive: [10] 107 % of control | dose: 25.0 mg/kg/injection, schedule: Q04DX003 (ip), vehicle: saline 102 % of control | dose: 50.0 mg/kg/injection, schedule: Q04DX003 (ip), vehicle: saline 106 % of control

COc1ccc([I+]c2ccc(OC)cc2)cc1
inactive: dose: 1.56 mg/kg/injection, schedule: Q01DX009 (ip), vehicle: saline 100 % of control | dose: 3.13 mg/kg/injection, schedule: Q01DX009 (ip), vehicle: saline 100 % of control | [9] 109 % of control | dose: 12.5 mg/kg/injection, schedule: Q04DX003 (ip), vehicle: saline sonified 100 % of control | dose: 25.0 mg/kg/injection, schedule: Q04DX003 (ip), vehicle: saline sonified 100 % of control | dose: 50.0 mg/kg/injection, schedule: Q04DX003 (ip), vehicle: saline sonified 100 % of control

Cc1ccc(/C=C2\CC(C)(C)c3ccccc3C2=O)cc1
inactive: dose: 65.0 mg/kg/injection, schedule: Q01DX009 (ip), vehicle: Klucel (hydroxypropylcellulose) (HPC) 90 % of control | dose: 100.0 mg/kg/injection, schedule: Q01DX009 (ip), vehicle: Klucel (hydroxypropylcellulose) (HPC) 87 % of control and 95 % of control | dose: 400.0 mg/kg/injection, schedule: Q01DX009 (ip), vehicle: Klucel (hydroxypropylcellulose) (HPC) 100 % of control

Cc1cc(C)c(C)c(Br)c1C
inactive: [11] 95 % of control | [12] 100 % of control | [13] 100 % of control

O=C1C=CC(=O)N1
inactive: dose: 0.26 mg/kg/injection, schedule: Q01DX009 (ip), vehicle: saline 105 % of control | dose: 0.4 mg/kg/injection, schedule: Q01DX009 (ip), vehicle: saline 90 % of control | dose: 0.61 mg/kg/injection, schedule: Q01DX009 (ip), vehicle: saline 100 % of control | dose: 0.93 mg/kg/injection, schedule: Q01DX009 (ip), vehicle: saline 109 % of control | dose: 1.39 mg/kg/injection, schedule: Q01DX009 (ip), vehicle: saline 118 % of control | dose: 3.6 mg/kg/injection, schedule: Q04DX003 (ip), vehicle: saline 95 % of control | dose: 8.5 mg/kg/injection, schedule: Q04DX003 (ip), vehicle: saline 104 % of control

CC(C)Oc1ccc(C(=O)NS(=O)(=O)c2ccc(N)cc2)cc1
inactive: dose: 100.0 mg/kg/injection, schedule: Q01DX001 (ip), vehicle: saline 113 % of control | dose: 200.0 mg/kg/injection, schedule: Q01DX001 (ip), vehicle: saline 104 % of control | dose: 400.0 mg/kg/injection, schedule: Q01DX001 (ip), vehicle: saline 100 % of control

OC1CC2CCC(C1)N2CCCN1c2ccccc2Sc2ccc(Cl)cc21 (stereo unspecified)
inactive: [14] 104 % of control | [15] 91 % of control | [16] 90 % of control

CCN(CC)C(=O)Cn1cc(F)c(N)nc1=O
inactive: [17] 95 % of control | [16] 110 % of control | [18] 90 % of control | [19] 100 % of control | [20] 100 % of control

Cn1nnnc1N/N=C/c1ccccc1
inactive: [2] 110 % of control | [3] 115 % of control | [4] 100 % of control

Cc1cccc(NC(=O)Nc2ccc(Oc3ccccc3Cl)c(S(=O)(=O)O)c2)c1
inactive: [14] 90 % of control | [15] 90 % of control | [17] 90 % of control

C#CC(C)OCC(C)OC (stereo unspecified)
inactive: dose: 12.5 mg/kg/injection, schedule: Q04DX003 (ip), vehicle: saline with Tween-80 118 % of control | [1] 118 % of control

Cc1csc2ccccc12
inactive: dose: 12.5 mg/kg/injection, schedule: Q01DX009 (ip), vehicle: saline with Tween-80 111 % of control | [5] 102 % of control | [6] 119 % of control

O=S(=O)(Nc1c(Cl)c(Cl)c(Cl)c(Cl)c1NS(=O)(=O)c1ccccc1)c1ccccc1
inactive: [11] 100 % of control | [12] 105 % of control | [13] 100 % of control

Nc1nc(CNc2ccc(Cl)cc2)nc(Nc2cccc(Cl)c2)n1
inactive: dose: 100.0 mg/kg/injection, schedule: Q01DX001 (ip), vehicle: saline sonified 100 % of control | dose: 200.0 mg/kg/injection, schedule: Q01DX001 (ip), vehicle: saline sonified 105 % of control | dose: 400.0 mg/kg/injection, schedule: Q01DX001 (ip), vehicle: saline sonified 100 % of control

CNC(=S)N/N=C(\C)c1snc(C)c1Br
inactive: [5] 94 % of control | [6] 103 % of control | [7] 96 % of control

O=C(O)c1ccc(N2C(=O)c3ccccc3C2=O)cc1[N+](=O)[O-]
inactive: [15] 106 % of control | [17] 107 % of control | [16] 99 % of control | [18] 111 % of control | [19] 105 % of control | [20] 99 % of control

O=c1c2oc3ccccc3c2cnn1CO
inactive: [7] 90 % of control | [8] 116 % of control

CCOC(=O)N(C)C(C)Cc1ccccc1 (stereo unspecified)
inactive: [6] 105 % of control | [7] 118 % of control
